Measurements reported in US10183082B2, “PET probes of radiofluorinated carboximidamides for IDO-targeted imaging” (H. LEE MOFFITT CANCER CENTER AND RESEARCH INSTITUTE, INC., priority 2014, dated 2019).

Experiments:
IDO = IDO (Homo sapiens, UniProt P14902); assay: Inhibition of IFN-γ induced IDO activity in Hela cells; format: cell-based; settings: Hela cell lines (FIGS. 7A, 7B)
tumor IDO expression = target: T1, tumor IDO expression (Mus musculus, UniProt P28776); assay: microPET/CT imaging of CLL mouse model versus wild-type mouse; format: in vivo; settings: imaged 1 hour after i.p. injection of the probe; CLL tumor mice vs wild-type mice
T1 construct: from tissue; host or cells: living CLL tumor mice (whole-animal microPET/CT)
T1 sequence (P28776 whole entry): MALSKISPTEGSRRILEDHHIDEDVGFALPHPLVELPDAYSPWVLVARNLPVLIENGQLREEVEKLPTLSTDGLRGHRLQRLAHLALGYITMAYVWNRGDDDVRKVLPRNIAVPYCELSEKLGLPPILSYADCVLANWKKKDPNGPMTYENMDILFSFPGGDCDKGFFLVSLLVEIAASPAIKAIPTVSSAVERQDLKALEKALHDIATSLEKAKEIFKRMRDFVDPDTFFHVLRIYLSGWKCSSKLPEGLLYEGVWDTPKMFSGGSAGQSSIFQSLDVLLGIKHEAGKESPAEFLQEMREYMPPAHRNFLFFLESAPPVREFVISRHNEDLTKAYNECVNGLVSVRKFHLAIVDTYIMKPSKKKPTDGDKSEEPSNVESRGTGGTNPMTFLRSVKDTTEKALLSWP
Method: Mice were imaged 1 hour after i.p. injection of the probe.

Hela cells = assay: alamarBlue cell proliferation (cytotoxicity) assay, Hela; format: cell-based; settings: 100 nM, 2 days incubation
Method: (§1) FIGS. 6A-6C. Cell viability study of HuMEC cells, MCA-MB-231 cells, and Hela cells, respectively, incubated with 100 nM of IDO inhibitors. After 2 days of incubation, alamarBlue cell viability reagent was added to cells and the fluorescence intensity (arbitrary fluorescent units) was measured after 3 hours incubation (n=4). Cytotoxicity of four IDO inhibitors toward different cell lines was evaluated with a cell proliferation assay using alamarBlue cell viability reagent. Hela cells were cultured in EMEM medium (ATCC 30-2003) containing 10% FBS, MDA-MB-231 and MCF-7 were cultured in RPMI-1640 Medium containing 10% FBS, while HuMEC cells were cultured in HuMEC medium (ATCC 12752-010). The cell proliferation assay included the following: harvesting of the cells by trypsinization and adding culture media to adjust to 10000 cell/mL; add 0.2 mL of cell suspension to each well and incubated at 37° C. in 5% CO2 atmosphere for 2 days; adding 1 μL of inhibitor solution (0.1 mM in DMSO) into growth media (1 mL) to get growth media w/inhibitor; aspirating spent growth medium from the wells and adding 200 μL of growth media w/ inhibitors and incubating at 37° C. in 5% CO2 atmosphere for 2 days; adding 20 μL of the alamarBlue (Invitrogen) into each well; incubating for addition 3 hours at 37° C. in 5% CO2 atmosphere; and reading the fluorescence intensity of each well with a plate reader (excitation, 544 nm; Emission 595 nm). The fluorescent signal is linear to the number of living cells.

MDA-MB-231 cells = assay: alamarBlue cell proliferation (cytotoxicity) assay, MDA-MB-231; format: cell-based; settings: 100 nM, 2 days incubation
Method: as §1

MCF-7 cells = assay: alamarBlue cell proliferation (cytotoxicity) assay, MCF-7; format: cell-based; settings: 100 nM, 2 days incubation
Method: as §1

HuMEC cells = assay: alamarBlue cell proliferation (cytotoxicity) assay, HuMEC; format: cell-based; settings: 100 nM, 2 days incubation
Method: as §1

[1] = via oral administration; cited from earlier work

IDO, sequence (P14902 whole entry): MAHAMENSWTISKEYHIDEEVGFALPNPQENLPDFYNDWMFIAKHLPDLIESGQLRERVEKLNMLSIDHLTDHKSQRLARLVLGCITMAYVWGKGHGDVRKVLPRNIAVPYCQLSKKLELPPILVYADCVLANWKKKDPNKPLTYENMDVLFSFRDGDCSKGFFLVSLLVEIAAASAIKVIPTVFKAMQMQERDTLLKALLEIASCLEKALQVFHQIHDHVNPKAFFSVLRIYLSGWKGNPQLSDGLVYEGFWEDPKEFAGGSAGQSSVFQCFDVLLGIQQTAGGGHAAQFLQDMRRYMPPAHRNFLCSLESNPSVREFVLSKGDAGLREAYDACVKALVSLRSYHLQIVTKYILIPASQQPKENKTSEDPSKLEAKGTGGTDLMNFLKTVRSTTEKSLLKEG

Inhibition of IDO activity (IDO) | SMILES | microPET/CT detection of tumor IDO expression (tumor IDO expression) | Cytotoxicity (Hela cells) | Cytotoxicity (MDA-MB-231 cells) | Cytotoxicity (MCF-7 cells) | Cytotoxicity (HuMEC cells) | t½ (clearance rate) [1] [min]
inhibited | O/N=C(\Nc1ccc(F)c(Cl)c1)c1nonc1NCCO/N=C\c1ccc(F)cc1 [IDO7] | – | – | – | – | – | –
– | Nc1nonc1/C(=N/O)Nc1ccc([18F])c(Cl)c1 [^18F-IDO5L, [18F] 4-amino-N-(3-chloro-4-fluorophenyl)-N′-hydroxy-1,2,5-oxadiazole-3-carboximidamide] | distinguishes IDO-positive chronic lymphocytic leukemia (CLL) mouse model and wild-type mouse in vivo | – | – | – | – | –
inhibited | O=C(Cc1ccc(F)cc1)Nc1nonc1/C(=N/O)Nc1ccc(F)c(Cl)c1 [IDO5] | – | – | – | – | – | –
inhibited | O=C(Nc1nonc1/C(=N/O)Nc1ccc(F)c(Cl)c1)c1ccc(F)cc1 [IDO6] | – | no cytotoxicity | no cytotoxicity | no cytotoxicity | no cytotoxicity | –
inhibited | Nc1nonc1C(=NO)Nc1ccc(F)c(Cl)c1 [IDO5L, 4-Amino-N-(3-chloro-4-fluorophenyl)-N′-hydroxy-1,2,5-oxadiazole-3-carboximidamide] | – | no cytotoxicity | no cytotoxicity | no cytotoxicity | no cytotoxicity | < 30
inhibited | ON=C(Nc1ccc(F)c(Cl)c1)c1nonc1NCCF [IDO4-9] | – | no cytotoxicity | no cytotoxicity | no cytotoxicity | no cytotoxicity | –
